Test results: US11530197B2, “Analogs for the treatment of disease” (Insilico Medicine IP Limited, priority 2021, dated 2022)

Experiments:
[1] = Metabolic stability in human liver microsomes; format: in vitro ADME; settings: LM Clint; 1 μM test compound, 0.5 mg protein/mL microsome, 37° C., up to 60 min;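 further: NADPH-supplemented human liver microsomes sampled at 0, 5, 10, 20, 30 and 60 min, parent compound quantified by LC-MS/MS, intrinsic clearance from first-order decay, no-cofactor incubation as control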
Protocol: Test Compound an Control Working Solution Preparation: Working solution: 5 μL of compound and control stock solution (10 mM in dimethyl sulfoxide (DMSO)) were diluted with 495 µL of acetonitrile (ACN) (intermediate solution concentration: 100 μM, 99% ACN).
Preparation Procedure: The appropriate amount of NADPH powder was weighed and diluted into a 10 mM MgCl2 solution (working solution concentration: 10 unit/mL; final concentration in reaction system: 1 unit/mL).
Preparation Procedure: The appropriate concentrations of microsome working solutions were prepared in 100 mM potassium phosphate buffer.
Stop Solution Preparation: Cold (4° C.) acetonitrile (ACN) containing 200 ng/mL tolbutamide and 200 ng/mL labetalol as internal standards (IS) was used as the stop solution.
Dilute liver microsomes to 0.56 mg/mL in 100 mM phosphate buffer.
Transfer 445 μL microsome working solutions (0.56 mg/mL) into pre-warmed ‘Incubation’ plates T60 and NCF60, Then pre-incubate ‘Incubation’ plates T60 and NCF60 for 10 min at 37° C. with constant shaking. Transfer 54 μL liver microsomes to blank plate, then add 6 μL NAPDH cofactor to blank plate, and then add 180 μL quenching solution to blank plate.
2.5.4 Add 5 μL compound working solution (100 μM) into ‘incubation’ plates (T60 and NCF60) containing microsomes and mix 3 times thoroughly.
For the NCF60 plate, add 50 μL of buffer and mix 3 times thoroughly. Start timing; plate will be incubated at 37° C. for 60 min while shaking.
For the T60 plate, mix 3 times thoroughly, and immediately remove 54 μL mixture for the 0-min time point to ‘Quenching’ plate. Then add 44 μL NAPDH cofactor to incubation plate (T60). Start timing; plate will be incubated at 37° C. for 60 min while shaking.
At 5, 10, 20, 30, and 60 min, add 180 μL quenching solution to ‘Quenching’ plates, mix once, and serially transfer 60 μL sample from T60 plate per time point to ‘Quenching’ plates.
For NCF60: mix once, and transfer 60 μL sample from the NCF60 incubation to ‘Quenching’ plate containing quenching solution at the 60-min time point.
All sampling plates are shaken for 10 min, then centrifuged at 4000 rpm for 20 minutes at 4° C.
Transfer 80 μL supernatant into 240 μL HPLC water, and mix by plate shaker for 10 min.
Each bioanalysis plate was sealed and shaken for 10 minutes prior to LC-MS/MS analysis.
The equation of first order kinetics was used to calculate T½ and Intrinsic clearance (CLint mic) in (L/min/mg).

TNIK(h) = TNIK(h) (Homo sapiens (Human), UniProt Q9UKE5); test: TNIK Human STE Kinase Enzymatic Radiometric Assay; format: biochemical; settings: ATP 70 μM; 40 min at room temperature; read-out: TNIK (IC50);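 further: remaining kinase activity relative to DMSO control, compound added without preincubation, reaction started with ATP, IC50 from variable-slope sigmoidal dose-response fit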
Chain of TNIK(h) (Q9UKE5 whole entry): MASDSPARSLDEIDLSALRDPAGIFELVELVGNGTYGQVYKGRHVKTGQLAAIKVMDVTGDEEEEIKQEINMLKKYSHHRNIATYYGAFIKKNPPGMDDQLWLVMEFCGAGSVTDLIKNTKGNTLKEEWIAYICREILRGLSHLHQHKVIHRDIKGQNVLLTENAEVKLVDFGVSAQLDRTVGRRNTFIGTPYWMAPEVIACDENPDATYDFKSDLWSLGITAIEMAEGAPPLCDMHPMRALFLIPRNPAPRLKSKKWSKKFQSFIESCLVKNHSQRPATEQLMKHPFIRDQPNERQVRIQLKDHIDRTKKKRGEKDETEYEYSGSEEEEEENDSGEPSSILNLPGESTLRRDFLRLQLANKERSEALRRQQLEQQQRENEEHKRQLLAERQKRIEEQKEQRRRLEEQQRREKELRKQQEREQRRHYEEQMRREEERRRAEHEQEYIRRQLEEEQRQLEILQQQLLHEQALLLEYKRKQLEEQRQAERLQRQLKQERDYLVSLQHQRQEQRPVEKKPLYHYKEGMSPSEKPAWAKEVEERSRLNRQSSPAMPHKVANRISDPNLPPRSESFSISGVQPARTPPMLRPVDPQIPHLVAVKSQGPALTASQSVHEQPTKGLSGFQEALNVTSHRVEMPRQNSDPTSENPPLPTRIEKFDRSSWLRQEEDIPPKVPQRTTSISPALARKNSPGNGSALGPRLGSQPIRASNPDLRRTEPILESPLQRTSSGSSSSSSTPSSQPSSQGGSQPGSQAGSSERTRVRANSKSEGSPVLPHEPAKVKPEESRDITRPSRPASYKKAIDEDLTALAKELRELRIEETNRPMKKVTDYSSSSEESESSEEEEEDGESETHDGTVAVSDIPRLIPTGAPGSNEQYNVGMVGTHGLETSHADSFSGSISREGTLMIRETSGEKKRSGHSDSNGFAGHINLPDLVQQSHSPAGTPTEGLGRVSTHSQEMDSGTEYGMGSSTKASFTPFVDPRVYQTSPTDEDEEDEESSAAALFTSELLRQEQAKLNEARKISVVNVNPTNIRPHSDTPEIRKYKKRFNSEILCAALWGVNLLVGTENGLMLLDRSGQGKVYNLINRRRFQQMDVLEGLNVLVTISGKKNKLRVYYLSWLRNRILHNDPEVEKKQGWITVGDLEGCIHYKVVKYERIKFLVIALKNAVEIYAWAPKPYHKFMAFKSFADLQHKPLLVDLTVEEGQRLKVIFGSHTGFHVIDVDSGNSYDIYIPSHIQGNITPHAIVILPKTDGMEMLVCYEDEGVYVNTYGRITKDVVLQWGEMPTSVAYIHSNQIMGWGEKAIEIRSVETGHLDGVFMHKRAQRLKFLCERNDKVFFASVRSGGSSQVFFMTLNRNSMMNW
Protocol: (§1) The reaction is initiated by the addition of the Mg/ATP mix. After incubation for 40 minutes at room temperature, the reaction is stopped by the addition of phosphoric acid to a concentration of 0.5%.
INCUBATION: 40 min at Room temperature
COMPOUND DILUTION SCHEME: All compounds supplied were prepared to a working stock of 50× final assay concentration in 100% DMSO. Where appropriate, more concentrated stocks were diluted manually to 50× using 100% DMSO. Compounds supplied as powders were reconstituted to a 10 mM stock in 100% DMSO before further dilution to 50×. ASSAY PROCEDURE: The required volume of the 50× stock of test compound was added to the assay before a reaction mix containing the enzyme and substrate was added. The reaction was initiated by the addition of ATP at the selected concentration. There was no pre-incubation of the compound with the enzyme/substrate mix prior to ATP addition. […] Results are expressed as kinase activity remaining, as a percentage of the DMSO control. This is calculated using the following formula:
(§2) For IC50 determinations, data are analyzed using XLFit version 5.3 (ID Business Solutions). Sigmoidal dose-response (variable slope) curves are fit based on the mean result for each test concentration using non-linear regression analysis. Where the top and/or bottom of the curve fall >10% out with 100 and 0, respectively, either or both of these limits may be constrained at 100 and 0, provided that the QC criterion on R2 is met.

MAP4K4 (h) = MAP4K4 (h) (Homo sapiens (Human), UniProt O95819); test: MAP4K4 Human STE Kinase Enzymatic Radiometric Assay; format: biochemical; settings: ATP 200 μM; 40 min at room temperature;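 further: kinase activity remaining relative to the DMSO control, IC50 derived from sigmoidal variable-slope curve fits, no preincubation of compound with enzyme before ATP start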
Chain of MAP4K4 (h) (O95819 whole entry): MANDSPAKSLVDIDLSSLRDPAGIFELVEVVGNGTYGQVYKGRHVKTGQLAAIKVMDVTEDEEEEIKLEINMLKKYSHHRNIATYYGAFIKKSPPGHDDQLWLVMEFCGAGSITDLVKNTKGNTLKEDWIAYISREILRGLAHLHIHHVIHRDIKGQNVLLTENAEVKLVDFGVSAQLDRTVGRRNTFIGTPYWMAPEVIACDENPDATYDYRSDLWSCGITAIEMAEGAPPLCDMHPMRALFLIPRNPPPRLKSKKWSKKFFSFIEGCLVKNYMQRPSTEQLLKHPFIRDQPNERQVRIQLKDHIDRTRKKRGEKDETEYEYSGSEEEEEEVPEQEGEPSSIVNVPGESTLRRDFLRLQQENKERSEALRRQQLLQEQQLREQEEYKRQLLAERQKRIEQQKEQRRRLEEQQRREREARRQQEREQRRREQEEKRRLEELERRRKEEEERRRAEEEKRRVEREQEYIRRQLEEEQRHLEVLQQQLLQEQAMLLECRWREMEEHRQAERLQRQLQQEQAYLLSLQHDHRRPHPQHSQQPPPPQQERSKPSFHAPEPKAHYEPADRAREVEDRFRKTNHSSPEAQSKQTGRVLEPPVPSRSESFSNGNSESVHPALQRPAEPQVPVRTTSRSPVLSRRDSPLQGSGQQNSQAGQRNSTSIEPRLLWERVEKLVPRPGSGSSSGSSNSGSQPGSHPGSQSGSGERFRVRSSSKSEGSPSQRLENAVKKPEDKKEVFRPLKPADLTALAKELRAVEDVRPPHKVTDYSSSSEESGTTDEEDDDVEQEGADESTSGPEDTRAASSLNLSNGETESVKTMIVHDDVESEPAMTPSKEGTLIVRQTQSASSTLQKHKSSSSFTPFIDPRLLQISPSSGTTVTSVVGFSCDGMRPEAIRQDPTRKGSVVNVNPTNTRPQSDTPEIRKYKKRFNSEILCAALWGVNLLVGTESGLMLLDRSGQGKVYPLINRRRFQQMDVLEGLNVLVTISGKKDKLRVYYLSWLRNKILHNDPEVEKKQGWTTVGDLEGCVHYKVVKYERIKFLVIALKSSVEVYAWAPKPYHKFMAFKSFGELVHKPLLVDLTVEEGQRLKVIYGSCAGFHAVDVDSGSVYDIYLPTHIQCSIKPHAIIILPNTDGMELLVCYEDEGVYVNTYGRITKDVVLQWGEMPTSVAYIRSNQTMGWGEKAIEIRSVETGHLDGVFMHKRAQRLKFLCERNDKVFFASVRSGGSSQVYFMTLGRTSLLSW
Protocol: as §1
INCUBATION: 40 min at Room temperature
COMPOUND DILUTION SCHEME: All compounds supplied were prepared to a working stock of 50× final assay concentration in 100% DMSO. Where appropriate, more concentrated stocks were diluted manually to 50× using 100% DMSO. Compounds supplied as powders were reconstituted to a 10 mM stock in 100% DMSO before further dilution to 50×.
ASSAY PROCEDURE: The required volume of the 50× stock of test compound was added to the assay before a reaction mix containing the enzyme and substrate was added. The reaction was initiated by the addition of ATP at the selected concentration. There was no pre-incubation of the compound with the enzyme/substrate mix prior to ATP addition.
Results are expressed as kinase activity remaining, as a percentage of the DMSO control. This is calculated using the following formula: Mean of Sample Counts−Mean of Blank Counts/Mean of Control Counts
as §2

[2] = test system: Collagen I (COL1A1) in LX-2 cells; test: Collagen and Alpha-SMA in LX-2 (Western blot after TGF-β stimulation); format: cell-based; settings: Homo sapiens, 4 ng/ml TGF-β for 48 hours, Collagen I normalized to GAPDH;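 further: cells serum-starved in 0.4% FBS before treatment, lysates analysed by Western blot, DMSO-only wells as blank and TGF-β alone as maximal induction control, three independent experiments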
Protocol: 3 ml of 0.25% Trypsin-EDTA solution was then added and cells were incubated at 37° C. for 5 min for each T150-flask. 7 ml of culture medium was added to stop trypsinization. The cells were centrifuged at 300×g for 5 min. Supernatant medium was discarded and cells were re-suspended with fresh culture medium. The cells were counted with Cell viability analyzer. 5.0E+05 cells/well were seeded into 6-well plate containing 2.0 mL of culture medium. The cells were cultured overnight at 37° C. The next day, the complete medium was replaced with medium with 0.4% FBS for starvation. […] In parallel, medium containing only DMSO and TGF-β was used as blank control and positive control, respectively. TGF-β induction was used as maximum induction positive control. The culture medium was discarded at the end of induction. Cells were washed once using ice-cold DPBS. RIPA buffer was added to lyse the cells for 20 min. The cells were then scraped off the culture plate, collected in a tube and centrifuged. The supernatant was stored at −80° C. The total amount of protein in the lysate was determined using BCA Protein Assay kit. The cell treatment of fibrosis assay was performed in three independent experiments for each compound.
All the lysate samples were adjusted to the same protein concentration with RIPA buffer after BCA assay. […] The denatured samples were used for electrophoresis. Western blot was performed according to the standard protocols. The same volume of protein was loaded onto 4-12% Bis-Tris gel. Duplicate lysates of samples were loaded onto two gels. The gels were run for 0.5 h at 80 V and 120 V for another 1 h. When the electrophoresis was completed, the gels containing target protein Collagen I (COL1A1) were transferred onto NC membrane using Trans-Blot Electrophoretic Transfer Cell for 90 min at 100 V. The iBlot™ 2 Gel Transfer Device was used to transfer α-SMA and GAPDH at 20 V for 7 min. All the membranes were blocked in TBST buffer with 5% nonfat dry milk in at RT for 1 h and then incubated with primary antibody anti-COL1A1 and anti-α-SMA in TBST buffer containing 5% BSA at 4° C. overnight. For GAPDH detection, the membrane with α-SMA immunoblots were stripped with Restore™ Western Blot Stripping Buffer after detection. And the membranes were re-blocked and then re-probed with primary antibody anti-GAPDH antibody at room temperature (RT) for 2 h. After incubation with primary antibodies, membranes were washed with TBST, then incubated with the secondary antibody at RT for 1 h. Blots were visualized using the instrument Image Quant LAS-4000. The chemiluminescent signals derived from ECL Western blotting reagents were captured. The bands integrated intensity from 16-bit blot images was used for quantitation with the software (1D component of ImageQuant TL). The quantification raw data of the two duplicated gels was obtained from ImageQuant TL. Collagen I and α-SMA proteins expression level was normalized to GAPDH for each gel. The average normalization data of the two duplicated gels was calculated and applied to calculate IC50 using an equation for a sigmoidal dose response (variable slope) of GraphPad™ Prism software. The equation is Y=Bottom+(Top-Bottom)/(1+10^((Log IC50−X)*Hillslope). Note: X is the logarithm of compound concentration, Y is the average normalization data

Structure (SMILES) | Human Liver Microsome (μM/min/mg) [1] | IC50 (TNIK(h)) [nM] | IC50 (MAP4K4 (h)) [nM] | IC50 [2] [nM]
CC(C)n1cnc(-c2ccc(F)cc2)c1-c1cccc(C(=O)Nc2ccc(N3CCN(C)CC3)cc2)n1 [Compound 127] | + (>100 μM/min/mg as +) | 1 to 12 | 1 to 12 | 0.1 to 1
CC(C)n1cnc(-c2ccc(F)cc2)c1-c1ccc(C(=O)Nc2ccc(N3CCN(C)CC3)cc2)o1 [Compound 121, 5-(4-(4-fluorophenyl)-1-isopropyl-1H-imidazol-5-yl)-N-(4-(4-methylpiperazin-1-yl)phenyl)furan-2-carboxamide] | + (>100 μM/min/mg as +) | 1 to 12 | 12 to 120 | < 0.1
CC(C)n1cnc(-c2ccc(F)cc2)c1-c1ccc(C(=O)Nc2ccc(CCO)cc2)o1 [Compound 126, 5-(4-(4-fluorophenyl)-1-isopropyl-1H-imidazol-5-yl)-N-(4-(2-hydroxyethyl)phenyl)furan-2-carboxamide] | + (>100 μM/min/mg as +) | 12 to 120 | 12 to 120 | 0.1 to 1
CC(C)n1cnc(-c2ccc(F)cc2)c1-c1nc(C(=O)Nc2ccc(N3CCN(CC(F)(F)F)CC3)cc2)c[nH]1 [Compound 189, 5′-(4-fluorophenyl)-3′-isopropyl-N-(4-(4-(2,2,2-trifluoroethyl)piperazin-1-yl)phenyl)-1H,3′H-[2,4′-biimidazole]-4-carboxamide] | – | 12 to 120 | 12 to 120 | 0.1 to 1
CN1CCN(c2ccc(NC(=O)c3c[nH]c(-c4c(-c5ccc(F)cc5)ncn4C4CCC(O)CC4)n3)cc2)CC1 (centres unmarked) [Compound 172] | +++ (1-10 μM/min/mg as +++) | – | – | < 0.1
CC(=O)N1CCN(c2ccc(NC(=O)c3c[nH]c(-c4c(-c5ccc(F)cc5)ncn4C(C)C)n3)cc2)CC1 [Compound 188, N-(4-(4-acetylpiperazin-1-yl)phenyl)-5′-(4-fluorophenyl)-3′-isopropyl-1H,3′H-[2,4′-biimidazole]-4-carboxamide] | – | 1 to 12 | 12 to 120 | 0.1 to 1
CC(C)n1cnc(-c2ccc(F)cc2)c1-c1nc(C(=O)Nc2ccc(N3CCN(C)C(=O)C3)cc2)c[nH]1 [Compound 185, 5′-(4-fluorophenyl)-3′-isopropyl-N-(4-(4-methyl-3-oxopiperazin-1-yl)phenyl)-1H,3′H-[2,4′-biimidazole]-4-carboxamide] | – | 12 to 120 | 12 to 120 | 0.1 to 1
CC(=O)N1CCN(c2ccc(NC(=O)c3c[nH]c(-c4c(-c5ccc(F)cc5)ncn4CC(F)(F)F)n3)cc2)CC1 [Compound 191, N-(4-(4-acetylpiperazin-1-yl)phenyl)-5′-(4-fluorophenyl)-3′-(2,2,2-trifluoroethyl)-1H,3′H-[2,4′-biimidazole]-4-carboxamide] | – | 12 to 120 | 12 to 120 | 0.1 to 1
CC1CN(c2ccc(NC(=O)c3c[nH]c(-c4c(-c5ccc(F)cc5)ncn4C(C)C)n3)cc2)CC(C)N1C (centres unmarked) [Compound 196, 5′-(4-fluorophenyl)-3′-isopropyl-N-(4-(3,4,5-trimethylpiperazin-1-yl)phenyl)-1H,3′H-[2,4′-biimidazole]-4-carboxamide] | – | 12 to 120 | 12 to 120 | < 0.1
O=C(Nc1ccc(N2CCN(CC(F)(F)F)CC2)cc1)c1c[nH]c(-c2c(-c3ccc(F)cc3)ncn2CC(F)(F)F)n1 [Compound 192, 5′-(4-fluorophenyl)-3′-(2,2,2-trifluoroethyl)-N-(4-(4-(2,2,2-trifluoroethyl)piperazin-1-yl)phenyl)-1H,3′H-[2,4′-biimidazole]-4-carboxamide] | – | 12 to 120 | > 120 | < 0.1
CN1[C@@H]2CC[C@H]1CN(c1ccc(NC(=O)c3c[nH]c(-c4c(-c5ccc(F)cc5)ncn4CC(F)(F)F)n3)cc1)C2 [Compound 193, 5′-(4-fluorophenyl)-N-(4-((1R,5S)-8-methyl-3,8-diazabicyclo[3.2.1]octan-3-yl)phenyl)-3′-(2,2,2-trifluoroethyl)-1H,3′H-[2,4′-biimidazole]-4-carboxamide] | – | 12 to 120 | 12 to 120 | < 0.1
